# Test results taken from patent US5278052A, “Process for the simultaneous production of benanomicins A and B” (Zaidan Hojin Biseibutsu Kagaku Kenkyu Kai, priority 1987, dated 1994).
# Structures can show the parent of a compound that is named as a salt. Where two headings read alike, the source gives them in different places.
# Key:
# [1] = Distinction between the basic, acidic and neutral natures of substance; type: physicochemical
# [2] = Solubility
# [3] = test system: Escherichia coli NIHJ; assay: MIC by standard serial dilution method (bacteria)
# [4] = test system: Cryptococcus neoformans F-10; assay: MIC by standard serial dilution method (fungi); type: cell-based
# [5] = test system: Xanthomonas citri; assay: MIC by standard serial dilution method; type: cell-based
# [6] = test system: Cochliobolus miyabeanus; assay: MIC by standard serial dilution method (fungi); type: cell-based; details: Bipolaris oryzae
# [7] = test system: Aspergillus niger; assay: MIC by standard serial dilution method (fungi); type: cell-based; details: dexylosylbenanomicin B as hydrochloride
# [8] = test system: various kinds of fungi; assay: antifungal activity, summary of Table 2; type: cell-based; details: as revealed from Table 2
# Description: 4. Antibacterial and antifungal activities of benanomicin A, benanomicin B and dexylosylbenanomicn B (as the hydrochloride) are described below.
# [9] = test system: Saccharomyces cerevisiae F-7; assay: MIC by standard serial dilution method (fungi); type: cell-based; details: F7, dexylosylbenanomicin B as hydrochloride
# [10] = test system: Mycobacterium smegmatis ATCC607; assay: MIC by standard serial dilution method (bacteria); details: Mycolicibacterium smegmatis
# [11] = test system: Pseudomonas aeruginosa A3; assay: MIC by standard serial dilution method (bacteria)
# [12] = test system: Candida albicans 3147; assay: MIC by standard serial dilution method (fungi); type: cell-based; details: dexylosylbenanomicin B as hydrochloride
# [13] = test system: Candida Yu-1200; assay: MIC by standard serial dilution method (fungi); type: cell-based; details: YU1200, dexylosylbenanomicin B as hydrochloride
# [14] = test system: Candida tropicalis F-1; assay: MIC by standard serial dilution method (fungi); type: cell-based; details: F1, dexylosylbenanomicin B as hydrochloride
# [15] = test system: Salmonella typhi T-63; assay: MIC by standard serial dilution method (bacteria); details: Salmonella enterica
# [16] = test system: Pellicularia sasakii; assay: MIC by standard serial dilution method (fungi); type: cell-based; details: dexylosylbenanomicin B as hydrochloride
# [17] = in vivo; details: mouse, iv
# [18] = test system: Pyricularia oryzae; assay: microbe, parasite or virus in culture; type: cell-based
# [19] = test system: Bacillus subtilis PCI219; assay: MIC by standard serial dilution method (bacteria)
# [20] = test system: Klebsiella pneumoniae PCI602; assay: MIC by standard serial dilution method (bacteria)
# [21] = test system: Corynebacterium bovis 1810; assay: MIC by standard serial dilution method (bacteria)
# [22] = test system: Staphylococcus aureus FDA209P; assay: MIC by standard serial dilution method (bacteria)
# [23] = test system: Xanthomonas oryzae; assay: microbe, parasite or virus in culture; type: cell-based
# [24] = test system: Trichophyton asteroides 429; assay: MIC by standard serial dilution method (fungi); type: cell-based; details: dexylosylbenanomicin B as hydrochloride
# [25] = test system: Staphylococcus aureus Smith; assay: MIC by standard serial dilution method (bacteria)
# [26] = test system: Escherichia coli K-12; assay: MIC by standard serial dilution method (bacteria); details: K12
# [27] = test system: Candida pseudotropicalis F-2; assay: MIC by standard serial dilution method (fungi); type: cell-based; details: Kluyveromyces marxianus, F2
# [28] = test system: Trichophyton mentagrophytes (883); assay: MIC by standard serial dilution method (fungi); type: cell-based; details: dexylosylbenanomicin B as hydrochloride
# [29] = test system: Candida krusei F-5; assay: MIC by standard serial dilution method (fungi); type: cell-based; details: Pichia kudriavzevii, F5, dexylosylbenanomicin B as hydrochloride
# [30] = test system: Proteus vulgaris OX19; assay: MIC by standard serial dilution method (bacteria)
# [31] = test system: Shigella dysenteriae JS11910; assay: MIC by standard serial dilution method (bacteria)
# [32] = test system: Micrococcus luteus FDA16; assay: MIC by standard serial dilution method (bacteria)
# [33] = test system: Jcl:ICR-strain mice; details: mouse, in vivo, iv, 600 mg/kg
# [34] = test system: Candida albicans; assay: therapeutic effect on experimental Candida infection in mice; details: 3 times (0, 6, 24 h)
# [35] = Candida pseudotropicalis F-2, dexylosylbenanomicin B as hydrochloride, read-out: MIC
compound,measurement,setting,value
COc1cc(O)c2c(c1)C(=O)c1c(cc3c(c1O)-c1c(cc(C)c(C(=O)N[C@H](C)C(=O)O)c1O)[C@H](O[C@@H]1O[C@H](C)[C@H](N)[C@H](O[C@@H]4OC[C@@H](O)[C@H](O)[C@H]4O)[C@H]1O)[C@H]3O)C2=O [Benanomicin B hydrochloride],"Distinction between the basic, acidic and neutral natures of substance",[1],Amphoteric substance
same,Solubility,[2]; acetone,Only sparingly soluble
same,Solubility,[2]; chloroform,Only sparingly soluble
same,Solubility,[2]; dimethylformamide,soluble
same,Solubility,[2]; dimethylsulfoxide,soluble
same,Solubility,[2]; ethyl acetate,Only sparingly soluble
same,Solubility,[2]; methanol,soluble
same,Solubility,[2]; water,soluble
COc1cc(O)c2c(c1)C(=O)c1c(cc3c(c1O)-c1c(cc(C)c(C(=O)N[C@H](C)C(=O)O)c1O)C(O[C@@H]1O[C@H](C)[C@H](N)[C@H](O[C@@H]4OC[C@@H](O)[C@H](O)[C@H]4O)[C@H]1O)C3O)C2=O (stereo partly shown) [Benanomicin B],MIC,[3],> 100 µg/mL
same,MIC,"[4]; F10, read-out: MIC",1.56 µg/mL
same,MIC,[5],> 100 µg/mL
same,MIC,[6],> 100 µg/mL
same,MIC,[7],> 100 µg/mL
same,antifungal activities against various kinds of fungi,[8],substantial antifungal activities
same,MIC,[9],12.5 µg/mL
same,MIC,[10],> 100 µg/mL
same,MIC,[11],> 100 µg/mL
same,MIC,[12],25 µg/mL
same,MIC,[13],12.5 µg/mL
same,MIC,[14],> 100 µg/mL
same,MIC,[15],> 100 µg/mL
same,MIC,[16],50 µg/mL
same,MTD,[17],100 mg/kg
same,MIC,[18],50 µg/mL
same,MIC,[19],> 100 µg/mL
same,MIC,[20],> 100 µg/mL
same,MIC,[21],3.12 µg/mL
same,MIC,[22],> 100 µg/mL
same,MIC,[23],> 100 µg/mL
same,MIC,[24],25 µg/mL
same,MIC,[25],> 100 µg/mL
same,MIC,[26],> 100 µg/mL
same,MIC,[27]; [35],6.25 µg/mL
same,MIC,[28],25 µg/mL
same,MIC,[29],6.25 µg/mL
same,MIC,[30],> 100 µg/mL
same,MIC,[31],> 100 µg/mL
same,MIC,[32],3.12 µg/mL
COc1cc(O)c2c(c1)C(=O)c1c(cc3c(c1O)-c1c(cc(C)c(C(=O)N[C@H](C)C(=O)O)c1O)C(O[C@@H]1O[C@H](C)[C@H](N)[C@H](O)[C@H]1O)C3O)C2=O (stereo partly shown) [Dexylosylbenanomicin B hydrochloride],"Distinction between the basic, acidic and neutral natures of substance",[1],Amphoteric substance
COc1cc(O)c2c(c1)C(=O)c1c(cc3c(c1O)-c1c(cc(C)c(C(=O)N[C@H](C)C(=O)O)c1O)C(O[C@@H]1O[C@H](C)[C@H](O)[C@H](O[C@@H]4OC[C@@H](O)[C@H](O)[C@H]4O)[C@H]1O)C3O)C2=O (stereo partly shown) [Benanomicin A],MIC,[3],> 100 µg/mL
same,MIC,"[4]; F10, read-out: MIC",3.12 µg/mL
same,MIC,[5],> 100 µg/mL
same,MIC,[6],> 100 µg/mL
same,MIC,[7],50 µg/mL
same,antifungal activities against various kinds of fungi,[8],substantial antifungal activities
same,MIC,[9],6.25 µg/mL
same,MIC,[10],> 100 µg/mL
same,MIC,[11],> 50 µg/mL
same,MIC,[12],25 µg/mL
same,MIC,[13],12.5 µg/mL
same,MIC,[14],25 µg/mL
same,MIC,[15],> 100 µg/mL
same,MIC,[16],25 µg/mL
same,MTD,[17],600 mg/kg
same,MIC,[18],25 µg/mL
same,"Distinction between the basic, acidic and neutral natures of substance",[1],Acidic substance
same,MIC,[19],> 100 µg/mL
same,mice killed,[33],none of the mice was killed
same,MIC,[20],> 100 µg/mL
same,MIC,[21],12.5 µg/mL
same,MIC,[22],100 µg/mL
same,MIC,[23],> 100 µg/mL
same,MIC,[24],50 µg/mL
same,Solubility,[2]; acetone,Only sparingly soluble
same,Solubility,[2]; alkaline water,soluble
same,Solubility,[2]; chloroform,Only sparingly soluble
same,Solubility,[2]; dimethylformamide,soluble
same,Solubility,[2]; dimethylsulfoxide,soluble
same,Solubility,[2]; ethyl acetate,Only sparingly soluble
same,Solubility,[2]; methanol,Only sparingly soluble
same,Solubility,[2]; water,insoluble
same,MIC,[25],> 100 µg/mL
same,Number of surviving mice,"[34]; 0.2 mg/mouse, subcutaneous",0/5
same,Percent of the number of surviving mice against the tested mice,"[34]; 0.2 mg/mouse, subcutaneous",0%
same,Number of surviving mice,"[34]; 0.3 mg/mouse, subcutaneous",2/5
same,Percent of the number of surviving mice against the tested mice,"[34]; 0.3 mg/mouse, subcutaneous",40%
same,Number of surviving mice,"[34]; 0.4 mg/mouse, subcutaneous",1/5
same,Percent of the number of surviving mice against the tested mice,"[34]; 0.4 mg/mouse, subcutaneous",20%
same,Number of surviving mice,"[34]; 0.8 mg/mouse, subcutaneous",5/5
same,Percent of the number of surviving mice against the tested mice,"[34]; 0.8 mg/mouse, subcutaneous",100%
same,Number of surviving mice,"[34]; 1.5 mg/mouse, oral",0/5
same,Percent of the number of surviving mice against the tested mice,"[34]; 1.5 mg/mouse, oral",0%
same,Number of surviving mice,"[34]; 3.0 mg/mouse, oral",0/5
same,Percent of the number of surviving mice against the tested mice,"[34]; 3.0 mg/mouse, oral",0%
same,Number of surviving mice,"[34]; 6.0 mg/mouse, oral",3/5
same,Percent of the number of surviving mice against the tested mice,"[34]; 6.0 mg/mouse, oral",60%
same,Number of surviving mice,"[34]; 12.0 mg/mouse, oral",3/5
same,Percent of the number of surviving mice against the tested mice,"[34]; 12.0 mg/mouse, oral",60%
same,MIC,[26],> 100 µg/mL
same,MIC,[27]; [35],6.25 µg/mL
same,MIC,[28],50 µg/mL
same,MIC,[29],6.25 µg/mL
same,MIC,[30],> 100 µg/mL
same,MIC,[31],> 50 µg/mL
same,MIC,[32],12.5 µg/mL
COc1cc(O)c2c(c1)C(=O)c1c(cc3c(c1O)-c1c(cc(C)c(C(=O)N[C@H](C)C(=O)O)c1O)C(O[C@@H]1O[C@H](C)[C@H](N)[C@H](O)[C@H]1O)C3O)C2=O (stereo partly shown) [Dexylosylbenanomicin B],MIC,[4]; F10,3.13 µg/mL
same,MIC,[5],100 µg/mL
same,MIC,[6],50 µg/mL
same,MIC,[7],25 µg/mL
same,antifungal activities against various kinds of fungi,[8],substantial antifungal activities
same,MIC,[9],6.25 µg/mL
same,MIC,[12],6.25 µg/mL
same,MIC,[13],6.25 µg/mL
same,MIC,[14],6.25 µg/mL
same,MIC,[16],25 µg/mL
same,MTD,[17],100 mg/kg
same,MIC,[18],25 µg/mL
same,MIC,[23],100 µg/mL
same,MIC,[24],50 µg/mL
same,MIC,[27],3.13 µg/mL
same,MIC,[28],50 µg/mL
same,MIC,[29],12.5 µg/mL
